# Assay results from US8883792B2, “Substituted isoquinoline derivative” (D. Western Therapeutics Institute, Inc., priority 2010, dated 2014).
# Counter-ions that a name gives are not always drawn.
# Test system: rabbits (New Zealand White)
# Assay: Ocular hypotensive effect in rabbits
# Format: in vivo, rabbit
# Conditions: male New Zealand White rabbits, 0.04 mL eye drop, concentration of 1% (w/v) or lower, maximum ocular hypotensive rate vs vehicle-treated contralateral eye
# Procedure: The compound of the present invention was administered to rabbits (New Zealand White, sex: male, 3 to 6 per group) and evaluated for its ocular hypotensive effect.
# Each test compound was dissolved in a vehicle 1 (1.04 g of sodium dihydrogen phosphate dihydrate and 0.5 g of sodium chloride dissolved in purified water and then adjusted to pH 7.0 with sodium hydroxide to make the total amount to 100 mL) or a vehicle 2 (2% (w/v) aqueous boric acid solution) to prepare a test compound solution with a predetermined concentration.
# The intraocular pressures of the rabbits were measured using Tiolat TonoVet handheld tonometer immediately before administration of test compound. The test compound solution and the vehicle were dropped at a volume of 0.04 mL to one eye and the contralateral eye, respectively, and the intraocular pressures were measured over time in the same way as above. The rate of the intraocular pressure of the eye receiving the test compound solution to that of the eye receiving the vehicle was calculated as an ocular hypotensive rate.
row,SMILES,Ocular hypotensive activity
1,"C[C@H](CNCC(C)(O)c1ccccc1)NS(=O)(=O)c1ccc2cnccc2c1.Cl (stereo partly drawn) [Example 85, N-{(2R)-1-(2-hydroxy-2-phenylpropylamino)propan-2-yl}isoquinoline-6-sulfonamide hydrochloride]",++ (maximum ocular hypotensive rate of 15% or more)
2,"C[C@H](CNC1Cc2ccccc2C1)NS(=O)(=O)c1ccc2cnccc2c1.Cl [Example 62, (R)—N-{1-(2,3-dihydro-1H-inden-2-ylamino)propan-2-yl}isoquinoline-6-sulfonamide hydrochloride]",++ (maximum ocular hypotensive rate of 15% or more)
3,"CCCNCC[C@@H](C)NS(=O)(=O)c1ccc2cnccc2c1 [Example 12, (R)—N-{4-(propylamino)butan-2-yl}isoquinoline-6-sulfonamide dihydrochloride]",++ (maximum ocular hypotensive rate of 15% or more)
4,"C[C@H](CNCCc1ccc(N)cc1)NS(=O)(=O)c1ccc2cnccc2c1.Cl.Cl.Cl [Example 69, (R)—N-{1-(4-aminophenethylamino)propan-2-yl}isoquinoline-6-sulfonamide trihydrochloride]",++ (maximum ocular hypotensive rate of 15% or more)
5,"C[C@H](CNCCc1ccccc1)NS(=O)(=O)c1ccc2c(SCCN)nccc2c1 [Example 111, (R)-1-(2-aminoethylthio)-N-{1-(phenethylamino)propan-2-yl}isoquinoline-6-sulfonamide trihydrochloride]",+ (maximum ocular hypotensive rate of 5% or more and less than 15%)
6,"C[C@H](CNCc1ccccc1)NS(=O)(=O)c1ccc2cnccc2c1 [Example 1, (R)—N-{1-(benzylamino)propan-2-yl}isoquinoline-6-sulfonamide dihydrochloride]",++ (maximum ocular hypotensive rate of 15% or more)
7,"C[C@H](CNCCc1ccc([N+](=O)[O-])cc1)NS(=O)(=O)c1ccc2cnccc2c1.Cl [Example 59, (R)—N-{1-(4-nitrophenethylamino)propan-2-yl}isoquinoline-6-sulfonamide hydrochloride]",++ (maximum ocular hypotensive rate of 15% or more)
8,"CCC(C)CNC[C@@H](C)NS(=O)(=O)c1ccc2cnccc2c1 (stereo partly drawn) [Example 20, N-(2R)-{1-(methylbutylamino)propan-2-yl}isoquinoline-6-sulfonamide hydrochloride]",++ (maximum ocular hypotensive rate of 15% or more)
9,"C[C@H](CNCCc1cccs1)NS(=O)(=O)c1ccc2cnccc2c1.Cl [Example 40, (R)—N-[1-{2-(thiophen-2-yl)ethylamino}propan-2-yl]isoquinoline-6-sulfonamide hydrochloride]",++ (maximum ocular hypotensive rate of 15% or more)
10,"C[C@H](CNCCCc1ccccc1)NS(=O)(=O)c1ccc2cnccc2c1 [Example 34, (R)—N-{1-(3-phenylpropylamino)propan-2-yl}isoquinoline-6-sulfonamide dihydrochloride]",++ (maximum ocular hypotensive rate of 15% or more)
11,"Cc1cncc2ccc(S(=O)(=O)N[C@H](C)CNCCc3ccccc3)cc12.Cl [Example 112, (R)—N-{1-(phenethylamino)propan-2-yl}-4-methyl-isoquinoline-6-sulfonamide hydrochloride]",++ (maximum ocular hypotensive rate of 15% or more)
12,C[C@H](CNCCc1ccnc2ccccc12)NS(=O)(=O)c1ccc2cnccc2c1.Cl [Example 65],+ (maximum ocular hypotensive rate of 5% or more and less than 15%)
13,"CCCCNC[C@@H](C)N(CC)S(=O)(=O)c1ccc2cnccc2c1.Cl [Example 96, (R)—N-[1-(butylamino)propan-2-yl]-N-ethylisoquinoline-6-sulfonamide hydrochloride]",++ (maximum ocular hypotensive rate of 15% or more)
14,"C[C@H](CNCC(O)c1cccc(Cl)c1)NS(=O)(=O)c1ccc2cnccc2c1 (stereo partly drawn) [Example 91, N-[(2R)-1-{2-(3-chlorophenyl)-2-hydroxyethylamino}propan-2-yl]isoquinoline-6-sulfonamide dihydrochloride]",++ (maximum ocular hypotensive rate of 15% or more)
15,"Cl.O=S(=O)(NCCNCCc1ccccc1)c1ccc2cnccc2c1 [Example 32, N-{2-(phenethylamino)ethyl}isoquinoline-6-sulfonamide hydrochloride]",++ (maximum ocular hypotensive rate of 15% or more)
16,"C[C@H](CNCCc1ccoc1)NS(=O)(=O)c1ccc2cnccc2c1.Cl [Example 67, (R)—N-[1-{2-(furan-3-yl)ethylamino}propan-2-yl]isoquinoline-6-sulfonamide hydrochloride]",++ (maximum ocular hypotensive rate of 15% or more)

row,SMILES,Ocular hypotensive activity
1,"C[C@H](CNCCc1ccc(F)cc1)NS(=O)(=O)c1cc2ccncc2cc1Br.Cl [Example 76, (R)-7-bromo-N-{1-(4-fluorophenethylamino)propan-2-yl}-isoquinoline-6-sulfonamide hydrochloride]",++ (maximum ocular hypotensive rate of 15% or more)
2,"C[C@H](CNCCc1ccc(F)cc1)NS(=O)(=O)c1ccc2cnccc2c1Br.Cl [Example 77, (R)-5-bromo-N-{1-(4-fluorophenethylamino)propan-2-yl}-isoquinoline-6-sulfonamide hydrochloride]",+ (maximum ocular hypotensive rate of 5% or more and less than 15%)
3,"C[C@H](CNC/C=C/c1ccc(Br)cc1)NS(=O)(=O)c1ccc2cnccc2c1 [Example 43, (R, E)-N-[1-{3-(4-bromophenyl)allylamino}propan-2-yl]isoquinoline-6-sulfonamide dihydrochloride]",++ (maximum ocular hypotensive rate of 15% or more)
4,"C[C@@H](NS(=O)(=O)c1ccc2cnccc2c1)[C@@H](N)CCCc1ccccc1 [Example 117, N-{(2R,3S)-3-amino-6-phenylhexan-2-yl)isoquinoline-6-sulfonamide hydrochloride]",++ (maximum ocular hypotensive rate of 15% or more)
5,"C[C@H](CNCCc1ccccc1)NS(=O)(=O)c1ccc2c(N)nccc2c1.Cl [Example 109, (R)-1-amino-N-{1-(phenethylamino)propan-2-yl}isoquinoline-6-sulfonamide hydrochloride]",+ (maximum ocular hypotensive rate of 5% or more and less than 15%)
6,"COc1cccc(CCNC[C@@H](C)NS(=O)(=O)c2ccc3cnccc3c2)c1 [Example 29, (R)—N-{1-(3-methoxyphenethylamino)propan-2-yl}isoquinoline-6-sulfonamide dihydrochloride]",++ (maximum ocular hypotensive rate of 15% or more)
7,"C[C@H](CN(C)CCc1ccccc1)NS(=O)(=O)c1ccc2cnccc2c1 [Example 99, (R)—N-[1-{methyl(phenethyl)amino}propan-2-yl]isoquinoline-6-sulfonamide dihydrochloride]",++ (maximum ocular hypotensive rate of 15% or more)
8,"C[C@H](CNCC[C@@H](O)c1ccccc1)NS(=O)(=O)c1ccc2cnccc2c1.Cl [Example 50, N—[(R)-1-{(R)-3-hydroxy-3-phenylpropylamino}propan-2-yl]isoquinoline-6-sulfonamide hydrochloride]",+ (maximum ocular hypotensive rate of 5% or more and less than 15%)
9,"CC=CCNC[C@@H](C)NS(=O)(=O)c1ccc2cnccc2c1 [Example 7, (R)—N-{1-(but-2-enylamino)propan-2-yl}isoquinoline-6-sulfonamide dihydrochloride]",++ (maximum ocular hypotensive rate of 15% or more)
10,"C[C@H](CNCCc1ccc(NC(N)=O)cc1)NS(=O)(=O)c1ccc2cnccc2c1.Cl [Example 72, (R)—N-{1-(4-ureidophenethylamino)propan-2-yl}isoquinoline-6-sulfonamide hydrochloride]",+ (maximum ocular hypotensive rate of 5% or more and less than 15%)
11,"C[C@H](CNCCc1c[nH]nn1)NS(=O)(=O)c1ccc2cnccc2c1.Cl [Example 94, (R)—N-[1-{2-(1H-1,2,3-triazol-4-yl)ethylamino}propan-2-yl]isoquinoline-6-sulfonamide hydrochloride]",++ (maximum ocular hypotensive rate of 15% or more)
12,"CC(C)CNC[C@@H](C)NS(=O)(=O)c1ccc2cnccc2c1 [Example 14, (R)—N-{1-(isobutylamino)propan-2-yl}isoquinoline-6-sulfonamide dihydrochloride]",++ (maximum ocular hypotensive rate of 15% or more)
13,"Cc1cccc(CCNC[C@@H](C)NS(=O)(=O)c2ccc3cnccc3c2)c1.Cl [Example 57, (R)—N-{1-(3-methylphenethylamino)propan-2-yl}isoquinoline-6-sulfonamide hydrochloride]",++ (maximum ocular hypotensive rate of 15% or more)
14,"C[C@H](CNC(=O)Cc1ccccc1)NS(=O)(=O)c1ccc2cnccc2c1.Cl [Example 103, (R)—N-{2-(isoquinoline-6-sulfonamido)propyl}-2-phenylacetamide hydrochloride]",++ (maximum ocular hypotensive rate of 15% or more)
15,"C[C@H](CNCC1CCC1)NS(=O)(=O)c1ccc2cnccc2c1.Cl [Example 16, (R)—N-{1-(cyclobutylmethylamino)propan-2-yl}isoquinoline-6-sulfonamide hydrochloride]",++ (maximum ocular hypotensive rate of 15% or more)
16,"C[C@H](CNCCc1cccc(F)c1)NS(=O)(=O)c1ccc2cnccc2c1.Cl [Example 52, (R)—N-{1-(3-fluorophenethylamino)propan-2-yl}isoquinoline-6-sulfonamide hydrochloride]",++ (maximum ocular hypotensive rate of 15% or more)
